# Where two headings read alike, the source gives them in different places.
# Columns and labels:
# [1] = cited from earlier work; for refreshing effect: prior art
# [2] = prior art; cited from earlier work
# [3] = organoleptic evaluation of the compounds: refreshing effect, bitterness, odour; format: in vivo; conditions: sensation of freshness, intensity in words
# [4] = hydrophilic nature of the compound; format: physicochemical
# [5] = refreshing effect in a tobacco flavouring composition; format: in vivo; conditions: approximately 0.05 g per kilogram of tobacco
# Source text: Approximately 0.05 g of (−)-(1R,3R,4S)-3-hydroxy-p-menthane-3-[…] is used per kilogram of tobacco.
# [6] = refreshing effect in a mouthwash flavouring composition; format: in vivo; conditions: approximately 0.2 g per litre of prepared mouthwash
# Source text: Approximately 0.2 g of (−)-(1R,3R,4S)-3-hydroxy-p-menthane-3-methanol is used per litre of prepared mouthwash.
# [7] = refreshing effect in boiled sweets; format: in vivo; conditions: 0.2 g per kilogramme of final product
# Protocol: A solution of saccharose (350 g) in water (110 g) is prepared which is boiled at 107° C. 150 g of glucose syrup is added and boiled at 148° C. The flavouring, citric acid and colouring agent are added at a temperature of approximately 120°, and 0.2 g of (−)-(1R,3R,4S)-3-hydroxy-p-menthane-3-methanol is added per kilogramme of final product.
SMILES,melting point [°C],refreshing effect [3],further results
CC1=C(N2CCCC2)C(=O)OC1 [4-methyl-3-(1-pyrrolidinyl)-2[5H]furanone],–,–,refreshing effect [1]: very intense refreshing effect
"CNC(=O)C(C)(C(C)C)C(C)C [2-isopropyl-N,2,3-trimethylbutyramide]",–,–,refreshing effect [1]: very active
CC(C)[C@@H]1CC[C@@H](C)C[C@H]1O [l-menthol],–,–,burning sensation ([1]; when used at a high concentration): can cause a burning sensation; volatility [2]: too high volatility
"CC(C)[C@@H]1CC[C@@H](C)C[C@@]1(O)CO [2b, (−)-(1R,3S,4S)-3-hydroxy-p-menthane-3-methanol]",48 to 50,–,–
CC(C)[C@@H]1CC[C@@H](C)C[C@]1(CO)OCCO [compound 11],–,not endowed with a particularly intense refreshing effect,–
"CC(C)[C@@H]1CC[C@@H](C)C[C@]1(O)C(O)CO (stereo partly drawn) [compound 3, (1R,3R,4S)-3-hydroxy-p-menthane-3-(ethane-1,2-diol)]",–,intense,hydrophilic nature [4]: hydrophilic
CC(O)C[C@]1(O)C[C@H](C)CC[C@H]1C(C)C (some centres unmarked) [compound 5],–,reduced intensity,–
"CC(C)[C@@H]1CC[C@@H](C)C[C@@]1(O)CCO [1a, (−)-(1R,3R,4S)-3-hydroxy-p-menthane-3-ethanol]",80 to 82,–,refreshing effect [5]: A refreshing effect is obtained
"CC(C)[C@@H]1CC[C@@H](C)C[C@]1(O)CCO [1b, (−)-(1R,3S,4S)-3-hydroxy-p-menthane-3-ethanol]",84 to 86,–,–
CC(C)[C@@H]1CC[C@@H](C)C[C@@]1(O)CC(C)(C)O [compound 6],–,reduced intensity,–
"CC(C)[C@@H]1CC[C@@H](C)C[C@]1(O)CO [2a, (−)-(1R,3R,4S)3-hydroxy-p-menthane-3-methanol]",80 to 82,–,refreshing effect [6]: A refreshing effect is obtained; refreshing effect [7]: A very distinct refreshing effect is obtained
CC(C)[C@@H]1CC[C@@H](C)C[C@@]1(O)C(C)CO (some centres unmarked) [compound 4],–,reduced intensity,–
